The values that follow come from patent US20220389112A1, “TREATMENT OF MULTIPLE MYELOMA” (priority 2019, published 2022).

What all share (assay type): cell-based
Data set [1] deals with H929 target myeloma cell line. The data set is described as follows: NK cell mediated cytotoxicity co-culture against H929. As to conditions: expanded primary NK cells, co-cultures 4 hrs.
Protocol: Co-cultures were carried out with either expanded (Miltenyi method) primary NK cells or IL-2 activated primary NK cells, both originally isolated from peripheral blood supplied by healthy donors and H929 and JJN3 target myeloma cell lines.
Propidium Iodide was used in flow cytometry to identify dead cells. MM cells were separated from NK cells by staining NK cells with CFSE cell tracking dye prior to initiating the co-culture.
% specific lysis (reported in all our figures) was calculated using the following formula:
Total cell death−basal cell death/100−basal cell death×100=%
Cell death here applies to target cells (e.g. JJN3 and H929)
After 30 mins treatment with Daratumumab, cells were co-cultured with primary expanded NK cells (Miltenyi method) for 4 hours at either 0.5:1 or 1:1 E:T (Effector:Target) ratios.
Another data set concerns MM cell line H929. The data set is described as follows: CD38 expression by flow cytometry on H929. As to conditions: anti-CD38 staining, vs non-treated controls. The procedure: (§1) Desialylation: Target cells were cultured with 300 μM 3Fax-Peracetyl Neu5Ac (SIA, sialyltransferase inhibitor) for 72 hrs prior to use or treated with Neuraminidase (Neura, sialidase) for 45 mins@37° C. prior to use.
(§2) Both types of primary NK cell were cultured with the same amount of IL-2 ([…] as is standard for primary NK cell work. MM1S, H929 and JJN3 were treated with either SIA or Neura as described above and stained with an anti-CD38 antibody (BD Pharmingen-564498) for 30 mins on ice prior to being screened for expression using flow cytometry.

The next data set deals with MM cell line MM1S. The experiment in a line: CD38 expression by flow cytometry on MM1S. As to conditions: anti-CD38 staining, vs non-treated controls. Here is the method:
as §1, §2
Background: Flow cytometry measures light scatter and fluorescence of single cells or particles in a stream.

A further data set deals with JJN3 MM cells. The data set is described as follows: CD38 expression by flow cytometry on JJN3. Particulars: treated 72 hours prior to expression measurement. Here is the method: as §2
JJN3 MM cells were treated with 300 μM SIA and 10 nM ATRA (all-trans retinoic acid), or 300 μM SIA, 10 nM ATRA and DMSO individually for 72 hrs@37° C. After 72 hours, the cells were collected, washed with normal culture media once and then treated with Daratumumab at a concentration of 10 μg/ml for 30 mins at room temperature.
Some cells from all treatment conditions were not treated with Daratumumab and were instead screened for CD38 expression using an anti-CD38 antibody.

On to `COC(=O)C1(OC(C)=O)OC(C(OC(C)=O)C(COC(C)=O)OC(C)=O)C(NC(C)=O)C(OC(C)=O)C1F` (stereo not shown) [SIA, 3Fax-Peracetyl Neu5Ac], for which the “expanded primary NK cell-mediated cytotoxicity (% specific lysis)” value in data set [1] is “enhanced expanded primary NK cell-mediated cytotoxicity”. Further, the “CD38 expression (MFI)” value with MM cell line H929 and with MM cell line MM1S was “unmasks CD38” each time.

As for `CC1=C(/C=C/C(C)=C/C=C/C(C)=C/C(=O)O)C(C)(C)CCC1` [ATRA, all-trans retinoic acid], the CD38 expression result with JJN3 MM cells is listed as “strongly up-regulates CD38 expression”.
